Experimental data as given in ChEMBL document CHEMBL1157539, “Thousands of chemical starting points for antimalarial lead identification” (Nature, 2010).

Tested on: Plasmodium falciparum
Assay: GSK_TCMDC: Inhibition of Plasmodium falciparum 3D7 in whole erythrocytes, using parasite LDH activity as an index of growth.
Assay type: functional, organism-based
Conditions: Plasmodium falciparum, 3D7

Cc1nc2c(=O)sc3ccccc3c2n1Cc1ccccc1
XC50: 0.881 µM

CS(=O)(=O)NCCCNCc1cccc(-c2cccc(-c3nc4cc(C(F)(F)F)ccc4[nH]3)c2)c1
XC50: 0.467 µM

COc1ccccc1C(=O)N1CCN(Cc2cccs2)CC1
XC50: 0.869 µM

COc1ccc(C=NN=c2cc(C)[nH]c3ccccc23)c(OC)c1
XC50: 0.616 µM

Cn1c(Cc2ccccc2)nnc1Sc1ccc(C#N)c([N+](=O)[O-])c1
XC50: 0.907 µM

CC(C)(C)c1ccc(NC(=O)c2ccc(CN3CCCN(Cc4ccc(F)cc4)CC3)cc2)cc1
XC50: 1.11 µM

Oc1cccc2ccc(Nc3ccccn3)nc12
XC50: 0.752 µM

COc1c(C2CCN(CCCCNC(=O)c3ccc(-c4ccc(Cl)cc4)cc3)CC2)ccc2c1C(C)(C)CCC2(C)C
XC50: 0.777 µM

COc1ccc(Nc2nccc(-c3cccc(NC(=O)c4cc5cc(F)ccc5[nH]4)c3)n2)cc1
XC50: 1.03 µM

c1cc(CNCCN2CCNCC2)cc(-c2ccc(-c3nc4ccccc4[nH]3)cc2)c1
XC50: 1.08 µM

CN/C(=C\[N+](=O)[O-])NCCSCc1cc(C)c(CN(C)C)s1
XC50: 0.348 µM

COc1cc2nc(N3CCN(C(=O)c4ccc(N(C(=O)OC(C)(C)C)C(=O)OC(C)(C)C)cc4)CC3)nc(N)c2cc1OC
XC50: 1 µM

O=C(Nc1cccc(-c2ccc(-c3nc4ccccc4[nH]3)cc2)c1)c1cccnc1
XC50: 1.04 µM

COc1ccc(CCn2c(=N)c(C(=O)NCc3ccccc3)cc3c(=O)n4cccc(C)c4nc32)cc1
XC50: 0.339 µM

O=C(Nc1cccc(CN2CCCN(Cc3cccc(O)c3)CC2)c1)c1cc2ccccc2s1
XC50: 0.365 µM

O=C(Nc1ccc2c(c1)CCC2)c1cccc(CN2CCCN(Cc3cccc(O)c3)CC2)c1
XC50: 1.08 µM

CCCc1cc(=O)[nH]c(-n2nc(C)cc2NC(=O)C(CC)c2ccccc2)n1 (configuration not stated)
XC50: 0.944 µM

Cc1cnc(Nc2ccccc2)nc1N[C@@H](CCCN)C(=O)Nc1ccccc1
XC50: 0.807 µM

CCCC(C)NC[C@@H](O)[C@H](Cc1ccccc1)NC(=O)c1cc(C2CCCC2)cc(N2CCCCS2(=O)=O)c1 (some centres not stated)
XC50: 0.147 µM

COc1cc(NC(=O)N2CCOC(CCN3CCC4(CCc5ccccc54)CC3)(c3ccc(Cl)c(Cl)c3)C2)cc(OC)c1 (configuration not stated)
XC50: 0.819 µM

NC1=Nc2ccc(Cl)cc2C1(O)c1ccccc1 (configuration not stated)
XC50: 0.876 µM

CC(C)[C@H](NC(=O)c1c(CN2CCC(N3CCCCC3)CC2)c(-c2ccccc2)nc2cc(O)ccc12)c1ccccc1
XC50: 0.741 µM

CC(C)(C)c1ccc(NC(=O)c2cccc(CN3CCCN(Cc4cccc(C#N)c4)CC3)c2)cc1
XC50: 0.755 µM

Cc1cc(CN2CCC(C(=O)Nc3ccc(-c4nc5ccccc5[nH]4)cc3)CC2)oc1C
XC50: 1.45 µM

Oc1nc(Cc2ccccc2)nc2ccc(Cl)cc12
XC50: 0.879 µM

CS(=O)(=O)c1ccc(Nc2ncc(-c3ccc(S(C)(=O)=O)cc3)c(OCC(F)(F)F)n2)cc1
XC50: 0.401 µM

CCc1n[nH]c(C(=O)Nc2cccc(N3CCCC3)c2)c1C
XC50: 1.46 µM

COc1ccc(NC(=O)c2ccc(-c3nc(-c4ccccc4)cs3)cc2)cc1N1CCN(C)CC1
XC50: 0.992 µM

CC(=O)NCC(=O)NC1=NC(=N)N(OCc2ccc3ccccc3c2)C(C)(C)N1
XC50: 0.0032 µM

COC1(C)Oc2ccc3cccc([N+](=O)[O-])c3c2C1=O (configuration not stated)
XC50: 0.635 µM

Cc1cc(=NN=CC=Cc2ccccc2)c2ccccc2[nH]1
XC50: 0.757 µM

Cc1ccccc1C1CCN(C2CCC(NC(=O)c3ccc(-c4ccccc4F)o3)CC2)CC1 (configuration not stated)
XC50: 1.05 µM

COc1cc2c(c(Cl)c1OC)CCN(C(=O)C(F)(F)F)CC2c1ccccc1 (configuration not stated)
XC50: 0.441 µM

COc1ccc2oc(=O)c(C#N)c(O)c2c1
XC50: 0.211 µM

CS(=O)(=O)c1ccc(CCNCc2ccc(-c3ccc(CN(C(=O)C4CC(=O)c5ccccc54)C4Cc5ccccc5C4)cc3)nc2)cc1 (configuration not stated)
XC50: 0.858 µM

N=c1n(Cc2ccccc2)c2ccccc2n1CC(O)c1ccc(Cl)cc1 (configuration not stated)
XC50: 0.879 µM

O=C(Nc1cccc(-c2ccc(-c3nc4cc(C(F)(F)F)ccc4[nH]3)cc2)c1)Nc1ccc(Cl)c(Cl)c1
XC50: 0.889 µM

O=c1ccccn1CCCC1CCCCN1 (configuration not stated)
XC50: 0.809 µM

COc1cccc(CN2CCC(N3CCc4cc(NC(=O)c5cc(C)on5)ccc43)C2)c1OC (configuration not stated)
XC50: 0.952 µM

COc1ccc(OC)c2c1CC1NCC2c2c(OC)ccc(OC)c21 (configuration not stated)
XC50: 0.971 µM

CCCCNc1nc(NCCCC)c2c(C)c(Cc3ccccc3)c(NCCCC)nc2n1
XC50: 0.889 µM

COc1ccccc1CN1CCC(NC(=O)c2ccc(-c3cccc(Cl)c3)s2)CC1
XC50: 1.42 µM

COc1cc(C2=NN(S(=O)(=O)c3c(C)cc(C)cc3C)CCCC2)ccc1Cl
XC50: 0.775 µM

CCOc1cc(C(C)C)ccc1C1CCN(CCCCNC(=O)c2ccc(NC(=O)c3ccc(Cl)cc3)cc2)CC1
XC50: 0.813 µM

CCC[C@@H]([C@@H](CC(C)C)C(=O)N[C@H](C(=O)Nc1nccs1)C(C)(C)SCCNC(=O)OCC)N(O)C=O
XC50: 0.173 µM

c1csc(-c2nc(N3CCCCC3)ncc2-c2ccsc2)n1
XC50: 0.136 µM

O=S(=O)(NCCN1CCCC1)c1cccc(-c2ccccc2CNC2Cc3ccccc3C2)c1
XC50: 0.738 µM

COc1ccc(-c2cc3ncnc(N4CCN(CCN5CCCC5)CC4)c3s2)cc1
XC50: 0.831 µM

CCOc1ccc(-c2nonc2NC(=O)c2ccccc2OC)cc1OCC
XC50: 0.241 µM

NS(=O)(=O)c1ccc(CNC(=O)c2cnc3c(O)cccc3c2Nc2cccc(NC(=O)c3ccc(Cl)c(Cl)c3)c2)cc1
XC50: 1.72 µM

CC(C)(C)c1ccc(CN2CCC(NC(=O)c3ccc(-c4ccccc4Cl)s3)CC2)cc1
XC50: 1.35 µM

O=C(Nc1ccon1)c1cc(-c2cccnc2)nc2ccc(Br)cc12
XC50: 0.744 µM

CC(C)c1ccc(C=CC(=O)NC2CCC(CN3CCC(c4c[nH]c5ccccc45)CC3)CC2)cc1 (configuration not stated)
XC50: 0.807 µM

Cc1cccc2nc(-c3cccc(-c4ccc(C(=O)NCCc5ccc(O)c(=O)[nH]5)cc4)c3)[nH]c12
XC50: 1.19 µM

COc1ccc(CNc2ncc(-c3ccsc3)c(-c3nccs3)n2)cc1OC
XC50: 0.089 µM

O=C(Nc1ccc(Br)cc1)N1CCC(n2c(-c3ccccc3)nc3cccnc32)CC1
XC50: 0.763 µM

Cc1ccc(S(=O)(=O)N2CCCN(C(=O)c3cc(-c4ccccc4)[nH]n3)CC2)cc1
XC50: 0.0843 µM

Cc1ccc(-n2c(=O)c3cccnc3n2CC(=O)Nc2cccc(C)c2C)cc1
XC50: 0.865 µM

CC(=O)Nc1nc(C(=O)Nc2cccc(-c3cccc(-c4nc5ccccc5[nH]4)c3)c2)cs1
XC50: 0.172 µM

O=C(Nc1ccc(Cl)cc1)c1ccc(CN2CCCN(Cc3cccc(F)c3)CC2)cc1
XC50: 1.03 µM

O=C(NCCCN1CCOCC1)c1cccc(Nc2nccc(Nc3ccc(Oc4ccccc4)cc3)n2)c1
XC50: 0.766 µM

CCCc1c(C(=O)OCC)c2cc(O)ccc2n1-c1ccc(OC)cc1
XC50: 0.138 µM

CC(C)C[C@H](NC(=O)c1cccc(F)c1)C(=O)N[C@H](/C=N/NC(=O)c1ccccc1)CCc1ccccc1
XC50: 0.715 µM

Cc1cccc(CNc2nc(C)cc(N[C@@H](Cc3ccccc3)C(=O)NCCc3ccccc3)n2)c1
XC50: 0.673 µM

CCCS(=O)(=O)N1CCC(CO)(Cc2ccccc2C(F)(F)F)CC1
XC50: 0.885 µM

Cc1cc(C)c(C(=O)Nc2n[nH]c3nnc(-c4cccc(F)c4F)cc23)c(C)c1
XC50: 1.07 µM

Cn1ncc2ccc(Nc3nccc(-c4ccc5c(c4)c(N)nn5C)n3)cc21
XC50: 0.648 µM

COc1ccc(S(=O)(=O)NCCCC2CCN(CCCCCNC(=O)C=Cc3ccc(Cl)c(Cl)c3)CC2)cc1
XC50: 1.04 µM

O=C(/C=C/c1ccc(Cl)c(Cl)c1)NCCCCCN1CCC(CCNC(=O)/C=C/c2ccc(Cl)c(Cl)c2)CC1
XC50: 0.561 µM

CCc1cn2c3c(cc(C(=O)N[C@@H](Cc4ccccc4)[C@H](O)CNC(C)(C)CCCC(C)C)cc13)N(C)S(=O)(=O)C2
XC50: 0.24 µM

O=C(NCCCN1CCCC1=O)NCc1ccccc1
XC50: 0.816 µM

FC(F)(F)c1ccc2c(NCCc3ccccc3)ccnc2c1
XC50: 1.27 µM

CCOC(=O)C1CCN(CCOc2cc(NC(=O)/C=C/c3ccccc3Cl)ccc2Br)CC1
XC50: 0.991 µM

CN1CCC(C(=O)Nc2cccc(-c3ccc(-c4nc5cc(C(F)(F)F)ccc5[nH]4)cc3)c2)CC1
XC50: 0.675 µM

CC(C)c1cc2c(ccc3nc(N)nc(N)c32)o1
XC50: 0.0857 µM

Cc1cccc(OCCCCON2C(=N)N=C(N)NC2(C)C)c1C
XC50: 0.0032 µM

CC(C)Nc1ccc(Nc2ccnc3cc4ccccc4cc23)cc1
XC50: 0.142 µM

COc1ccc(NC(=O)c2cc(-c3ccc(NC(C)=O)cc3)cnc2N)cc1
XC50: 0.806 µM

CC(C)(C)C(=O)Nc1ccccc1Oc1ccc(Cl)cc1
XC50: 0.00748 µM

CCc1nc2nc(C)cc(Nc3ccc(F)c(Cl)c3)n2n1
XC50: 0.974 µM

CC(C)(C)NS(=O)(=O)c1cc(C(=O)N2CCC(CCN3CCC(O)(c4cccc(C(F)(F)F)c4)CC3)(c3cccc(F)c3)CC2)c(Cl)cc1F
XC50: 0.858 µM

Cc1c(N=O)cc(C(C)(C)C)c(O)c1C(=O)Nc1ccc([N+](=O)[O-])cc1Cl
XC50: 0.775 µM

CCC[C@@H]([C@@H](CC1CCCCC1)C(=O)N[C@H](C(=O)Nc1nccs1)[C@@H](C)OCc1ccccc1)N(O)C=O
XC50: 0.0782 µM

O=C1Nc2cccc3c2C1(CCCCCN1CCC(c2c[nH]c4ccncc24)CC1)CCC3 (configuration not stated)
XC50: 0.99 µM

CC(C)CN(c1nc(C(=O)NNC(=O)[C@H](CC2CC2)NC(=O)c2cc3cc(OCCN4CCCCC4)ccc3o2)cs1)C1CC1
XC50: 0.213 µM

CC(=O)Nc1ccc(CN(Cc2ccc(OC(C)(C)C)cc2)Cc2ccc3c(c2)OCCO3)cc1
XC50: 0.927 µM

Cc1nnsc1C(=O)Nc1ccc(-c2cccc(-c3nc4cccc(C)c4[nH]3)c2)cc1
XC50: 0.63 µM

CNCCNCc1ccc(-c2ccc(-c3nc4cccc(C)c4[nH]3)cc2)cc1
XC50: 0.67 µM

O=C(NCc1ccc(C(=O)NC2CCCCC2)cc1)c1ccc(O)c(-c2ccc(Cl)c(Cl)c2)c1
XC50: 0.875 µM

CCN(CC)CCN(CCCc1ccc(-c2ccc(C(F)(F)F)cc2)cc1)C(=O)Cn1c(CCc2cccc(F)c2F)nc(=O)c2ccccc21
XC50: 0.767 µM

CC(=O)NCCNc1nccc(N2CCc3ncnc(Nc4ccc(OCc5cccc(F)c5)c(Cl)c4)c3C2)n1
XC50: 0.129 µM

Cc1cc(C(=O)OCC(=O)Nc2c(C)n(C)n(-c3ccccc3)c2=O)c(C)n1-c1ccc(F)cc1
XC50: 0.0539 µM

Cc1cccc2nc(-c3ccc(-c4cccc(NC(=O)Nc5ccccc5)c4)cc3)[nH]c12
XC50: 0.715 µM

CCOC(=O)c1ccc(NC(=O)Nc2cccc(-c3ccc(-c4nc5cccc(C)c5[nH]4)s3)c2)cc1
XC50: 0.144 µM

Cc1nc2ccc([N+](=O)[O-])cc2c(=O)n1OCc1ccccc1
XC50: 0.208 µM

COc1ccc(CN(C)Cc2ccc(NC(=O)c3cccc4c(=O)c5cccc(C)c5[nH]c34)cc2)cc1OC
XC50: 0.844 µM

CCCCCCCN1CC[C@@H](CCCc2ccnc3ccc(OCCCCNC(N)=O)cc23)[C@@H](CC)C1
XC50: 0.835 µM
